From US20190292189A1, “LIM KINASE INHIBITORS” (VIRONGY, LLC, priority 2016, published 2019)
Read-outs that look alike come from different tables or passages of the source.

Experiments:
[1] = system: HIV-1(NL4-3); experiment: microbe, parasite or virus in culture; assay type: cell-based
[2] = target: T1, LRRK2 (G20195) (Homo sapiens, UniProt Q5S007, G2019S); experiment: Kinase profiling at 1 μM (Reaction Biology); assay type: biochemical
T1 construct: purchased Reaction Biology Corporation
Procedure: Profiling was carried out at Reaction Biology Corporation following a protocol described at its website: http://www.reactionbiology.com/webapps/site/. The % data were the average from two determinations. ATP concentration used: 10 μM; Staurosporine was used as the positive control.
Biochemical assays for all Limk inhibitors and kinase profiling were carried out in Reaction Biology Corporation and followed the protocols described on its website. […] Compounds were tested at 1 μM with duplicate experiments in profiling assays. […] Reactions were carried out at 10 μM ATP, 1 μM substrate cofilin, and 50 nM Limk1 (final concentrations).

[3] = target: T2, P450 1A2 (Homo sapiens, UniProt P05177)
T2 sequence (P05177 1-516): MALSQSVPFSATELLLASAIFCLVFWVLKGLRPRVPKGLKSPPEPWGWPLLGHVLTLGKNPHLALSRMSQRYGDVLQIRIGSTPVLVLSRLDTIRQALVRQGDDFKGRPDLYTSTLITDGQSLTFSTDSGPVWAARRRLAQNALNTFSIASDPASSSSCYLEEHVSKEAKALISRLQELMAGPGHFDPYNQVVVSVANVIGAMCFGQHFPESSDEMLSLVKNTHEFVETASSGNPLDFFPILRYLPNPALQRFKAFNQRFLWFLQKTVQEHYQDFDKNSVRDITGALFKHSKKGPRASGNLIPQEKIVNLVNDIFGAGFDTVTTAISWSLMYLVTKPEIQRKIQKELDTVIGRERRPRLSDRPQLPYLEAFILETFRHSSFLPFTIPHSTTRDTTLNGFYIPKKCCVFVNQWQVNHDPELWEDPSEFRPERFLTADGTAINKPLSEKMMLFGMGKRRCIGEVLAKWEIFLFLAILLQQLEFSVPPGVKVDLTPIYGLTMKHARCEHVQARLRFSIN

[4] = system: HIV-1(VSVG); assay type: cell-based
[5] = system: cofilin serine 3 phosphorylation in CEM-SS T cells; experiment: Western blot of cofilin serine 3 phosphorylation in CEM-SS T cells (time course); assay type: cell-based, human; details: 100 μM
Procedure: (§1) FIG. 10. Chemical and Biochemical characterization of R10015. a, Chemical structure of R10015 and its docking into the crystal structure of LIMK1 (PDB ID 3S95, Chain A). […] CEM-SS T cells treated with R10015 (100 μM) for a time course, and the phosphorylation of cofilin, LIMK, and PAK1/2 were measured by Western Blot. Levels of each protein or GAPDH were also measured for loading control. d, R10015 inhibits Jurkat T cell chemotaxis in responding to SDF-1. e, R10015. f, R10015 inhibits chemotactic actin activity. Resting CD4 T cells were treated with R10015, and then exposed to SDF-1 for a time course. Actin polymerization were measured by FITC-phalloidin staining. g, the relative intensity of F-actin staining was also plotted.
(§2) One million cells were lysed in NuPAGE LDS Sample Buffer (Invitrogen), separated by SDS-PAGE, and then transferred onto nitrocellulose membranes (Invitrogen). The membranes were washed in TBST for 3 min and then blocked for 30 min at room temperature with Starting Block blocking buffer (Pierce). For probing with different antibodies, blots were incubated with rabbit anti-LIMK1 antibodies (Cell Signaling), with rabbit anti-p-coflin antibodies (Cell Signaling) or with a mouse anti-PAK1/2 antibody (Cell Signaling). These antibodies were diluted in 2.5% milk/TBST and rocked overnight at 4° C. […]

[6] = system: single-cycle HIV-1(Env) in CEM-SS T cells; assay type: cell-based; details: all time points
[7] = system: single-cycle HIV-1(Env) in CEM-SS T cells; experiment: Viral 2-LTR circles, real-time PCR; assay type: cell-based
[8] = system: RVFV (rift valley fever virus); assay type: cell-based; details: Vero cells
[9] = system: surface CD4 and CXCR4 on CEM-SS T cells; experiment: Surface staining of CD4 and CXCR4; assay type: cell-based, human
Procedure: FIG. 11. R10015 inhibits HIV-1 DNA synthesis, nuclear migration, and virion release. a, Effects of R10015 on surface CD4 and CXCR4 expression. […] CEM-SS T cells were treated with R10015, and then infected with BlaM-Vpr tagged HIV-1(NL4-3) or HIV-1(VSV-G) to measure viral entry. c. R10015 inhibits viral DNA synthesis. CEM-SS T cells were treated with R10015 for 1 hour, and then infected with a single-cycle HIV-1(Env) for 2 hours in the presence of R10015. Following infection, cells were washed to remove HIV-1 and R10015. Viral DNA synthesis was measured by real-time PCR. d. R10015 inhibits 2-LTR circle DNA formation. Cells were similar treated with R10015 and infected. 2-TLR circles were quantified by real-time PCR. e. R10015 inhibits virion release. Cells were infected with HIV-1(Env) for 2 hours, washed, incubated for 12 hours, and then treated with R10015. Virion release was quantified by measuring p24 in the supernatant.
Cells were stained with FITC-labeled monoclonal antibody against human CD4 (clone PRA-T4) or CXCR4 (clone 12G5) (BD Biosciences). Cells were stained on ice in PBS+0.1% BSA for 30 minutes, washed with cold PBS-0.5% BSA, and then analyzed on a FACSCalibur (BD Biosciences).

[10] = system: phosphorylation of LIMK; experiment: Western blot of LIMK phosphorylation in CEM-SS T cells; assay type: cell-based, human
Procedure: as §1, §2

[11] = system: phosphorylation of PAK1/2; experiment: Western blot of PAK1/2 phosphorylation in CEM-SS T cells; assay type: cell-based, human
Procedure: as §1, §2

[12] = system: resting CD4 T cells; experiment: Surface staining of CD25 and CD69 (T cell activation); assay type: cell-based, human; details: CD3/CD28 beads

T1 sequence (Q5S007 970-2527 G2019S limits assumed): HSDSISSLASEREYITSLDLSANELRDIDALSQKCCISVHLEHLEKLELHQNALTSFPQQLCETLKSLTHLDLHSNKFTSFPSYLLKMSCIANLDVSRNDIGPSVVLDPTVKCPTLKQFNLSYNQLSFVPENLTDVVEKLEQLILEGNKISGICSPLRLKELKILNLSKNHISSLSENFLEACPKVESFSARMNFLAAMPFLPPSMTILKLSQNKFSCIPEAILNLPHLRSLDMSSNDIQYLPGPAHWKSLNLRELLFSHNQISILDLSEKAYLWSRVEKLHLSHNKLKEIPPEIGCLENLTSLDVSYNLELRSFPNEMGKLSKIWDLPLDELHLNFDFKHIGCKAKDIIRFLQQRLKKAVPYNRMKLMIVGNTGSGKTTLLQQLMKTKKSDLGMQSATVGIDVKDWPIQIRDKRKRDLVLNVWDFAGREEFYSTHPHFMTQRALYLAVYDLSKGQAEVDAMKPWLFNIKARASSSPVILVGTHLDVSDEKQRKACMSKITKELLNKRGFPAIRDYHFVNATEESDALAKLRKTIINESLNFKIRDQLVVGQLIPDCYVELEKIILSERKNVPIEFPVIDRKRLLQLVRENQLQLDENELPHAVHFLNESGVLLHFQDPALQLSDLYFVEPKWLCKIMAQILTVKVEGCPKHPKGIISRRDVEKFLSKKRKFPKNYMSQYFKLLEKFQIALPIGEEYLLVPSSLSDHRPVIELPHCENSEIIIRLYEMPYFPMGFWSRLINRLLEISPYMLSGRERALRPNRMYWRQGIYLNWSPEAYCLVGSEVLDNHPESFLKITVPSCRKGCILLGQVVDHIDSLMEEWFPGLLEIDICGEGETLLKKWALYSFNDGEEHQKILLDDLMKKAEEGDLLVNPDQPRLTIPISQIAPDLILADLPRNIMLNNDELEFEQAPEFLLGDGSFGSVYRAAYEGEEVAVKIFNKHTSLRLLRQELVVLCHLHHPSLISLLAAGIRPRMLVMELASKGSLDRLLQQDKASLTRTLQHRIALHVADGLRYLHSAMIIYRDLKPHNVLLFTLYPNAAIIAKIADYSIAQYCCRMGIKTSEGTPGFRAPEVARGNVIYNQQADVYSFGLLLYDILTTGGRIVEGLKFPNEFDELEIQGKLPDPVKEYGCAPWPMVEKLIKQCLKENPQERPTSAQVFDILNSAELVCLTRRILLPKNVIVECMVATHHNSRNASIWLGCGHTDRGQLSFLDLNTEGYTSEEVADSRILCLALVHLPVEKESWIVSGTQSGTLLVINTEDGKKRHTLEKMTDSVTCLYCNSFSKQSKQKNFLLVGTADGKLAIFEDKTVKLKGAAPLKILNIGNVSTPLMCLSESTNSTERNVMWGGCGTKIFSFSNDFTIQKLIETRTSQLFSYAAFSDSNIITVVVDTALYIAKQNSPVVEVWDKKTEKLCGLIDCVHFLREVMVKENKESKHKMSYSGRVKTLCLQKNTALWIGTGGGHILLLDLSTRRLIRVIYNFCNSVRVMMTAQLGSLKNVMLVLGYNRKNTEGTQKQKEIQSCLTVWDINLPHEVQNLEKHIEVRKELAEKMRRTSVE

Row | Structure (SMILES) | X4 HIV infection (screen) [1] | inhibition at 1 µM ([2]; kinase panel) | P450 % inh. at 10 μM 1A2 [3] | IC50 ([1]; Human immunodeficiency virus 1, NL43, T-cell, read-out: half maximal inhibition concentration (IC50) for inhibiting HIV infection) | X4 HIV infection (screen) ([1]; […], dosages with no detectable cytotoxicity) | inhibition of VSVG pseudotyped HIV [4] | cofilin serine 3 phosphorylation [5] | viral DNA synthesis [6] | viral nuclear migration (2-LTR circles) [7] | RVFV infection [8] | surface expression of CD4 and CXCR4 ([9]; 1 hour treatment) | surface density of CD4 ([9]; prolonged treatment (4 hours)) | phosphorylation of LIMK [10] | phosphorylation of PAK1/2 [11] | T cell activation (CD25 and CD69 surface staining) [12] | activity at 1 µM ([2]; ATP 10 μM)
1 | Cc1c[nH]c2ncnc(-c3ccc(NC(=O)N(CCO)c4ccccc4)cc3)c12 [Compound 18b, 1-(2-Hydroxyethyl)-3-(4-(5-methyl-7H-pyrrolo[2,3-d]pyrimidin-4-yl)phenyl)-1-phenylurea] | blocked | > 50% | −16/14/5/13% |  |  |  |  |  |  |  |  |  |  |  |  | 
2 | COC(=O)c1ccc2[nH]c(C3CCN(c4ncnc5[nH]cc(Cl)c45)CC3)nc2c1 [Compound R10015, Methyl 2-(1-(5-chloro-7H-pyrrolo[2,3-d]pyrimidin-4-yl)piperidin-4-yl)-1Hbenzo[d]imidazole-5-carboxylate] |  |  |  | 14.9 µM | blocked | did not inhibit | drastic inhibition | inhibited | inhibited | inhibited | did not alter | slightly decreased | did not inhibit | not inhibited | did not inhibit T cell activation | 6.7%
